Test systems include M14 melanoma; RPMI-8226 leukemia; CAKI-1 renal; SK-MEL-28 melanoma; KM12 colon; NCI-H460 lung; SF-295 CNS; OVCAR-3 ovarian; CCRF-CEM leukemia; SR leukemia.
Common to all, as to assay: DTP human tumour cell line panel, 48 h

The GI50 is the concentration that inhibits growth by half. The term TGI denotes the concentration at which net growth stops.

Several values for one entry are separate records, joined by “and”; a condition that tells them apart may be missing. Equal entries are not always repeated.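 Exposure lasted 48 hours, with cells grown in 96-well plates and compounds tested at five concentrations. Abbreviation: GI50, concentration required for 50% inhibition of growth. TGI denotes the concentration required for complete inhibition of growth.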

Take `O=C(c1ccc2ccccc2c1)c1c(C(F)(F)F)n([O-])c2cc(F)c(F)cc2[n+]1=O`: the GI50 with M14 melanoma is 2.53 µM; with RPMI-8226 leukemia, 1.12 µM; in the test with CAKI-1 renal, 1.82 µM; with SK-MEL-28 melanoma, 4.22 µM; with KM12 colon, 0.937 µM; with NCI-H460 lung, 3.74 µM. Besides, the GI50 was 2.02 µM in the test on SF-295 CNS, 1.46 µM with OVCAR-3 ovarian, 1.33 µM with CCRF-CEM leukemia and 0.45 µM in the test with SR leukemia. Besides, the concentration for total growth inhibition (TGI) with M14 melanoma was 7.11 µM; in the test on RPMI-8226 leukemia, 3.79 µM; in the test with CAKI-1 renal, 3.97 µM; with SK-MEL-28 melanoma, 12.7 µM; with KM12 colon, 8.1 µM; in the test on NCI-H460 lung, 88.9 µM. For the same molecule, the concentration for total growth inhibition (TGI) was 4.9 µM in the test with SF-295 CNS, 2.98 µM in the test with OVCAR-3 ovarian, 3.63 µM with CCRF-CEM leukemia and 3.18 µM in the test with SR leukemia.
Take `COc1ccc(N2Cc3cnc(Nc4ccccc4)nc3N([C@@H]3CC[C@@H](O)C3)C2=O)cc1`: the GI50 with M14 melanoma is 3.7 µM; in the test on RPMI-8226 leukemia, 5.72 µM; with CAKI-1 renal, 1.36 µM; in the test on SK-MEL-28 melanoma, 8.19 µM; with KM12 colon, 3.54 µM; in the test with NCI-H460 lung it was 3.41 µM. Further, the GI50 was 17.6 µM in the test with SF-295 CNS, 10.9 µM with OVCAR-3 ovarian, 5.98 µM in the test on CCRF-CEM leukemia and 3.12 µM in the test on SR leukemia. For the same molecule, the concentration for total growth inhibition (TGI) was above 25 µM with M14 melanoma; above 25 µM with RPMI-8226 leukemia; above 9.74 µM in the test on CAKI-1 renal; above 25 µM in the test with SK-MEL-28 melanoma; above 25 µM with KM12 colon; above 25 µM with NCI-H460 lung. For the same molecule, the concentration for total growth inhibition (TGI) in the test on SF-295 CNS was above 25 µM; in the test with OVCAR-3 ovarian, above 25 µM; in the test on CCRF-CEM leukemia it was above 25 µM; in the test on SR leukemia it was above 16.6 µM.
Turning to `Nc1ncnc2c1ncn2C1CCC(COS(N)(=O)=O)C1` (configuration not stated), the TGI in the test on M14 melanoma, in the test on RPMI-8226 leukemia, in the test with CAKI-1 renal, in the test on SK-MEL-28 melanoma, with KM12 colon and with NCI-H460 lung was above 100 µM in each case. For the same molecule, the TGI in the test on SF-295 CNS, in the test with OVCAR-3 ovarian, in the test on CCRF-CEM leukemia and in the test with SR leukemia was above 100 µM throughout.
Turning to `Oc1ccc(C(c2ccc(O)cc2)c2ccc(Cl)cn2)cc1`, the GI50 in the test on M14 melanoma is 21.3 µM; with RPMI-8226 leukemia, 21.1 µM; in the test on CAKI-1 renal, 22.1 µM; in the test on SK-MEL-28 melanoma, 28 µM; in the test on KM12 colon, 0.463 µM; in the test on NCI-H460 lung it was 31.6 µM. Besides, the concentration for 50% growth inhibition (GI50) is 0.403 µM in the test with SF-295 CNS, 0.0266 µM in the test on OVCAR-3 ovarian, 14.9 µM in the test on CCRF-CEM leukemia and 29.5 µM in the test on SR leukemia. Moreover, the TGI was above 100 µM in the test with M14 melanoma; above 84.8 µM in the test with RPMI-8226 leukemia; above 100 µM in the test with CAKI-1 renal; above 100 µM in the test on SK-MEL-28 melanoma; above 100 µM in the test with KM12 colon; above 100 µM in the test on NCI-H460 lung. Besides, the TGI with SF-295 CNS was 7.21 µM; with OVCAR-3 ovarian, 0.0769 µM; with CCRF-CEM leukemia, above 100 µM; in the test on SR leukemia, above 100 µM.
On to `CCCC(=O)Nc1cc(C(=O)N2C[C@@H]3C[C@]34C2=CC(=O)c2[nH]cc(C)c24)n(COC)c1`, for which the GI50 is 2.05 µM in the test on M14 melanoma; 2.57 µM with RPMI-8226 leukemia; 4.25 µM in the test with CAKI-1 renal; 3.08 µM in the test on SK-MEL-28 melanoma; 4.58 µM in the test with KM12 colon; 2.62 µM in the test on NCI-H460 lung. The GI50 in the test with SF-295 CNS is 5.4 µM; in the test on OVCAR-3 ovarian, 2.58 µM; in the test with CCRF-CEM leukemia it was 0.495 µM. For the same molecule, the concentration for total growth inhibition (TGI) was 50 µM and 5.96 µM in the test on M14 melanoma; 37.3 µM and 8.36 µM with RPMI-8226 leukemia; 13 µM and 17.3 µM in the test on CAKI-1 renal; 34.2 µM and 10.7 µM in the test with SK-MEL-28 melanoma; 20.4 µM and 21.5 µM in the test on KM12 colon; 16.6 µM and 7.35 µM in the test on NCI-H460 lung. Also, the TGI in the test on SF-295 CNS is 50 µM and 20.4 µM; with OVCAR-3 ovarian, 24.4 µM and 5.09 µM; with SR leukemia it was 2.09 µM.
Regarding `CCO/C=C/C(C)C1(C(=O)OCC)CCCCC1=O` (configuration not stated), the TGI in the test on M14 melanoma, with RPMI-8226 leukemia, in the test on CAKI-1 renal, in the test with SK-MEL-28 melanoma, with KM12 colon and with NCI-H460 lung was above 100 µM throughout. Further, the TGI in the test on SF-295 CNS, with OVCAR-3 ovarian, with CCRF-CEM leukemia and in the test with SR leukemia was above 100 µM throughout.
`COc1ccc(-c2nc3sc(-c4ccc(Cl)cc4)cn3n2)cc1`: the GI50 in the test with M14 melanoma was above 50 µM; with RPMI-8226 leukemia, 3.67 µM; in the test on CAKI-1 renal it was 1.79 µM; with SK-MEL-28 melanoma, above 50 µM; with KM12 colon, 12.2 µM; in the test on NCI-H460 lung, 1.33 µM. Further, the GI50 with SF-295 CNS is 2.81 µM; with OVCAR-3 ovarian, 1.72 µM; in the test on CCRF-CEM leukemia, above 50 µM; in the test with SR leukemia, 4.53 µM. For the same molecule, the TGI was above 50 µM with M14 melanoma; above 50 µM with RPMI-8226 leukemia; 8.92 µM in the test on CAKI-1 renal; above 50 µM in the test with SK-MEL-28 melanoma; above 50 µM in the test on KM12 colon; 4 µM in the test with NCI-H460 lung. Further, the TGI in the test on SF-295 CNS was 31.8 µM; with OVCAR-3 ovarian, 7.2 µM; with CCRF-CEM leukemia it was above 50 µM; in the test on SR leukemia, 26.1 µM.
For the molecule `COc1cc(/C=C2\CCC/C(=C\c3cc(OC)c(O)c(OC)c3)C2=O)cc(OC)c1O`, the GI50 in the test with M14 melanoma is 2.9 µM; in the test on CAKI-1 renal it was 2.51 µM; in the test with SK-MEL-28 melanoma, 3.12 µM; with SF-295 CNS, 4.98 µM; with OVCAR-3 ovarian it was 3.47 µM; with SR leukemia, 1.73 µM. Moreover, the TGI in the test with M14 melanoma was 75 µM and 69.4 µM; with RPMI-8226 leukemia, 7.54 µM; with CAKI-1 renal, 4.38 µM and 7.62 µM; in the test on SK-MEL-28 melanoma it was 75 µM and 24.8 µM; in the test on KM12 colon it was 8.33 µM; in the test with NCI-H460 lung, 10.7 µM. Besides, the TGI in the test on CCRF-CEM leukemia was 17.8 µM; in the test on SR leukemia it was 75 µM and 28.8 µM.

Source of the values: PubChem BioAssay (NCI).
